The results in this text go back to patent US20090286720A1, “PHARMACEUTICAL COMPOSITION FOR THE DIAGNOSIS, PREVENTION OR TREATMENT OF A TUMORAL PATHOLOGY COMPRISING AN AGENT MODULATING THE POLYMERIZATION STATE OF ACTIN” (priority 2001, published 2009).

Starred links: 1 amine or outer side, 2 acyl side, 3 side chain; linkers in the order of their positions; H or OH if unused. Non-standard residues stand in square brackets, D forms with d. Residues, ends and D or L forms follow the SMILES beside them. X1 = CC[C@H](C)[C@H](OC(=O)[C@@H](C)[C@@H](CC)N[*:1])C(=O)[*:2]; X2 = C[C@H](N[*:1])C(=O)C(C)(C)C(=O)[*:2]; NMeY = CN[C@@H](Cc1ccc(O)cc1)C(=O)O; NMeL = CN[C@@H](CC(C)C)C(=O)O; NMeV = CN[C@H](C(=O)O)C(C)C

The subject of data set [1] is EWS-Fli cells. Description: Morphological modification of EWS-Fli cells (actin filaments stained with phalloidin-FITC). In kind it is cell-based, murine. As to conditions: FIG. 12. Here is the method: The cells (5×10^3) were cultured on glass slides 10 mm in diameter and kept in culture for 24 hours. After fixation (3% paraformaldehyde) and permeabilization (0.2% TritonX100), the actin filaments of the cells were immunostained by phalloidin coupled to FITC. Untreated NIH3T3; NIH3T3 transfected by EWS-Fli (EF); EF incubated in the presence of 10 μM or 100 μM of jasplakinolide; EF incubated with 10 μM or 20 μM of D11 (FIG. 12).

The next data set relates to actin. Description: In vitro measurement of actin polymerization by fluorescence anisotropy in EWS-Fli cell extracts. As to conditions: dolastatin 11 added in the polymerization buffer of EWS-Fli cell extracts; deficit versus NIH3T3 extracts; FIG. 11. It is filed as biochemical. Here is the method: Cell extracts of NIH3T3 cells or EWS-Fli cells were brought into the presence of actin Alexa 488 in a buffer G ([…] pH 8.1; 170 μM CaCl2; 170 μM DTT; 170 μM ATP). The polymerization reaction was triggered by addition of a buffer P (KCl 51 mM, MgCl2 1 mM and ATP 0.5 mM). Dolastatin (μM) was added to the cell extracts of the EWS-Fli cells at the same time as the buffer P. Polymerization of actin was monitored by fluorescence anisotropy on a Beacon 2000. The results obtained are illustrated in FIG. 11.
On the technique in general: Fluorescence polarisation rises when a labelled molecule tumbles more slowly, as on binding a larger partner.

For data set [2], the system named is NIH3T3 cells. Description: Morphological modification of NIH3T3 cells (actin filaments stained with phalloidin-FITC). It is filed as cell-based, murine. As to conditions: same concentrations (10 or 20 nM); FIG. 12. The procedure: The cells (5×10^3) were cultured on glass slides 10 mm in diameter and kept in culture for 24 hours. After fixation (3% paraformaldehyde) and permeabilization (0.2% TritonX100), the actin filaments of the cells were immunostained by phalloidin coupled to FITC. […]

Data set [3] relates to NIH3T3 cells. Description: Toxicity of dolastatin-11 by MTT test on NIH3T3 cells. It is filed as cell-based, murine. As to conditions: low concentrations (10 or 20 nM), FIG. 13. The procedure: (§1) The cells (10^4 per well) were cultured in 96-well plates in the presence of different concentrations of D11. Monitoring of the toxicity of D11 in relation to time was performed by means of an MTT test on the NIH3T3 cells (A) and the EWS-Fli cells (B). The results are illustrated in FIG. 13.
In general terms: Tetrazolium assays rely on reduction of a dye to a coloured formazan, in cell work by metabolically active cells.

For data set [4], the system named is EWS-Fli cells. Description: Toxicity of dolastatin-11 by MTT test on EWS-Fli cells. As to conditions: low concentrations (10 or 20 nM), FIG. 13. In kind it is cell-based, murine. Here is the method:
as §1

The subject of data set [5] is EWS-Fli cells. Put plainly: Development of tumors in the nude mouse after subcutaneous injection of EWS-Fli cells. In kind it is in vivo. As to conditions: nude mice, 10 μg/kg intravenous on 5th, 8th and 11th days after EWS-Fli cell injection, measured on 28th day; FIG. 14. Here is the method: Twenty-four hours after irradiation (5 Gy) of the mice, the EWS-Fli cells (10^6) were inoculated via the subcutaneous route. The mice were then separated into two lots, with the first lot corresponding to the untreated mice and the second lot to the mice having received three injections of dolastatin 11 via the intravenous route (10 μg/kg) on the 5th, 8th and 11th days after injection of the EWS-Fli cells. […]

Data set [6] can be described thus: Survival of the mice (tolerated dose). As to conditions: intravenous.

As to `C/C1=C\[C@H](C)C[C@H](C)OC(=O)C[C@H](c2ccc(O)cc2)NC(=O)[C@@H](Cc2c(Br)[nH]c3ccccc23)N(C)C(=O)[C@H](C)NC(=O)[C@@H](C)C1` [jasplakinolide], the “effect on the cytoskeleton” value with EWS-Fli cells [1] (EWS-Fli cells incubated with 10 μM or 100 μM of jasplakinolide) is recorded as “effect”.

On to `CC[C@H](C)[C@@H]1OC(=O)[C@@H](C)[C@@H](CC)NC(=O)[C@H](C)NC(=O)C(C)(C)C(=O)[C@H](C)NC(=O)[C@H](Cc2ccc(OC)cc2)N(C)C(=O)[C@H](C(C)C)N(C)C(=O)CNC(=O)[C@H](CC(C)C)N(C)C(=O)CNC1=O` [dolastatin 11] (cyclo(A[X1]G[NMeL]G[NMeV][NMeY](Me)[X2])), for which, in the data set with actin, the “capacity of cell extracts to polymerize actin (fluorescence anisotropy)” value is given as “can compensate in part for this deficit”. Further, the “effect on the cytoskeleton” value in the data set with EWS-Fli cells [1] (EWS-Fli cells incubated with 10 μM or 20 μM of D11) is reported as “effect”. Also, in the data set with EWS-Fli cells [1] (EWS-Fli cells, 10 or 20 nM), the “contact structures between the cells” value is reported as “reestablished the contact structures between the cells”; the “stress fibers and morphology of the cells” value was “restored the stress fibers of the cells with a morphology close to that of NIH3T3 cells”. The “morphology of NIH3T3 cells” value in the data set with NIH3T3 cells [2] is “did not modify in the least”. Moreover, in the data set on NIH3T3 cells [3], the “cytotoxicity or cytostaticity (MTT test)” value is listed as “no cytotoxicity or cytostaticity effects were observed”. Moreover, the “cytotoxicity or cytostaticity (MTT test)” value with EWS-Fli cells [4] was “no cytotoxicity or cytostaticity effects were observed”. The development of tumors entry with EWS-Fli cells [5] is given as “markedly delayed”. The “dose used (10 μg/kg) relative to the dose not affecting survival of the mice” value in data set [6] was “five times weaker than the dose not affecting survival of the mice”.
